The values that follow come from patent US6200999A, “3-Alkoxyisoxazol-4-yl-substituted 2-amino carboxylic acid compounds” (H. Lundbeck A/S, priority 1996, dated 2001).

SMILES strings stand for the structures. Structures can show the parent of a compound that is named as a salt.

One data set concerns AMPA receptor. The data set can be described thus: Cortical wedge model, AMPA receptor (rat brain slices in vitro). In kind it is cell-based. As to conditions: receptor subtype AMPA; for EC50: agonists. As for the experimental part:
(§1) The Cortical wedge model is a test in which slices of rat brain is examined in vitro in order to quantify the effect of ligands at the various Glu-receptors and evaluate the pharmacological profile of the ligands (i.e. agonist/antagonist properties). The test was performed as described by Harrison, N. L. and Simmonds, M. A. Br.J.Pharmacol. 1985, 84, 381-391 as modified according to Wheatley, P. L. Br.J.Pharmacol. 1986, 87, 159P.

In the next data set the test system is NMDA receptor. Briefly: Cortical wedge model, NMDA receptor (rat brain slices in vitro). It is filed as cell-based. As to conditions: receptor subtype NMDA; for pKi: antagonist. As for the experimental part:
as §1

The test system of another data set is AMPA receptors. As to conditions: literature; cited from earlier work.
The conditions of data set [1]: literature; cited from earlier work.
The next data set relates to animals. As to conditions: literature; cited from earlier work.

Take `CCOc1noc(C(=O)O)c1C[C@H](N)C(=O)O` [(S)-2, (S)-2-Amino-3-(5-carboxy-3-ethoxyisoxazol-4-yl)propionic Acid]: in the data set on AMPA receptor, the Profile entry is “Agonist” and the midpoint of the response, the EC50, lay at 4.4 µM.
On to `CCCOc1noc(C(=O)O)c1CC(N)C(=O)O` (racemic) [Compound 10, (RS)-2-Amino-3-(3-propoxy-5-carboxyisoxazol-4-yl)propionic Acid], for which, in the data set on AMPA receptor, the Profile entry is “Agonist” and the EC50 was 80 µM.
`CCOc1noc(C(=O)O)c1CNc1c(N)c(=O)c1=O` [Compound 17, [4-(2-Amino-3,4-dioxocyclobut-1-en-1-yl)aminomethyl]-3-ethoxyisoxazole-5-carboxylic Acid]: in the data set with NMDA receptor, the Profile result is recorded as “Antagonist” and the pKi is 3.3.
Taken in the same sequence, the figures for `NC(Cc1c(C(=O)O)on(Cc2ccccc2)c1=O)C(=O)O` (racemic) [Compound 13, (RS)-2-Amino-3-(2-benzyl-5-carboxy-2,3-dihydro-3oxisoxazol-4-yl)propionic Acid, Hydrochloride, Monohydrate] were “Antagonist” and 3.5.
`C=CCOc1noc(C(=O)O)c1CC(N)C(=O)O` (racemic) [Compound 12, (RS)-2-Amino-3-(3-allyloxy-5-carboxyisoxazol-4-yl)propionic Acid]: in the data set with AMPA receptor, the Profile entry is “Agonist” and the midpoint of the response, the EC50, lay at 40 µM.
Taken in the same sequence, the figures for `COc1noc(C(=O)O)c1CC(N)C(=O)O.O` (racemic) [Compound 1, (RS)-2-Amino-3-(5-carboxy-3-methoxyisoxazol-4-yl)propionic Acid Hydrate] were “Agonist” and 1.2 µM.
In the case of `NC(Cc1c(O)noc1-c1ccccc1)C(=O)O` (racemic) [APPA, (RS)-2-Amino-3-(3-hydroxy-5-phenylisoxazol-4-yl)propionic acid], in the data set with AMPA receptors, the “agonist effects at AMPA receptors” value is “weak but unique partial agonist profile”.
Take `CCOc1noc(C(=O)O)c1C[C@@H](N)C(=O)O` [(R)-2, (R)-2-Amino-3-(5-carboxy-3-ethoxyisoxazol-4-yl)propionic Acid]: the Profile result with AMPA receptor is recorded as “Antagonist”. Also, the pKi on AMPA receptor (antagonist) came out at 3.28.
In the case of `Cc1onc(C(=O)O)c1CC(N)C(=O)O` (racemic) [ACPA], in the data set with AMPA receptors, the “agonist effects at AMPA receptors” value was “potent AMPA receptor agonist”.
In the case of `CCCCOc1noc(C(=O)O)c1CC(N)C(=O)O` (racemic) [Compound 11, (RS)-2-Amino-3-(3-butoxy-5-carboxisoxazol-4-yl)propionic Acid], in the data set with AMPA receptor, the Profile result is recorded as “Part. Agonist” and the response was half-maximal at 325 µM (EC50).
Taken in the same sequence, the figures for `CCOc1noc(-c2nnn[nH]2)c1CC(N)C(=O)O` (racemic) [Compound 8, (RS)-2-Amino-3-[3-ethoxy-5-(5-tetrazolyl)isoxazol-4-yl]propionic acid] were “Agonist” and 2000 µM.
Taken in the same sequence, the figures for `CCOc1noc(C(=O)O)c1CC(N)C(=O)O` (racemic) [Compound 2, (RS)-2-Amino-3-(5-carboxy-3-ethoxyisoxazol-4-yl)propionic Acid] were “Agonist” and 4.8 µM.
`CC(C)(C)c1onc(O)c1CC(N)C(=O)O` (racemic) [ATPA]: in data set [1], the systemic activity result is on record as “systemically active”. In addition, the neurotoxic effects result in the data set with animals is “has not been reported to show neurotoxic effects in animals”.
With `Cc1onc(O)c1CC(N)C(=O)O` (racemic) [AMPA, (RS)-2-amino-3-(3-hydroxy-5-methylisoxazol-4-yl)propionic acid], the “agonist effects at AMPA receptors” value with AMPA receptors is reported as “selective agonist effects at AMPA receptors”.
Regarding `CC(C)Oc1noc(C(=O)O)c1CC(N)C(=O)O` (racemic) [Compound 3, (RS)-2-Amino-3-(5-carboxy-3-isopropoxyisoxazol-4-yl)propionic Acid], in the data set with AMPA receptor, the Profile result is “Agonist” and the midpoint of the response, the EC50, lay at 40 µM.
